Earlier results on one compound are cited in US20120252675A1, “HERBICIDE […] A […] E[…] A POLYA[…] THE ALKYL GROUP IS BRANCHED” (priority 2009, published 2012).

Molecules are shown by their SMILES.

For the data set the following is noted: room temperature.

With `O=C(O)CNCP(=O)(O)O` [glyphosate], the solubility in water result is listed as “about 1.5 % by weight”.
